Experimental data from article PMC2441954, “Phase I pharmacokinetic and pharmacodynamic study of the prenyl transferase inhibitor AZD3409 in patients with advanced cancer” (British Journal of Cancer, 2008).

Tests used:
[1] = Phase I dose escalation, toxicity (CTC v2.0) in patients with advanced solid malignancies; assay type: in vivo
Description: The study was divided into two parts. Part A was an open-label dose-escalation study to define the maximum tolerated dose (MTD). Part B was an enrichment phase in female patients having advanced breast cancer for whom there was no standard therapy available.
AZD3409 was administered continuously starting on day 1 of each cycle of 21 days. A modified Fibonacci schedule was used for dose escalation, starting from 500 mg AZD3409. […] At least three patients were treated at each dose level. The occurrence of a DLT in a patient during the first cycle led to enrolment of three additional patients. Patients with progressive disease were removed from the study and patients who were removed within the first cycle of the study for reasons other than drug-related toxicity were replaced.
Pretreatment evaluation included a complete medical history and physical examination. Measurable and evaluable disease was documented before the start of the study and during the study as a basis for the assessment of clinical activity of the treatment. Tumour response was recorded according to RECIST criteria ([Therasse et al, 2000]). Toxicity was monitored at each visit. […] DLT was defined as any of the following events during the first treatment cycle: grade 3 or 4 anaemia or thrombocytopaenia, febrile neutropaenia grade 3, or grade 4 neutropaenia, grade 3 or 4 biochemical toxicity, grade 2 (or worse) nausea and vomiting despite optimal antiemetic therapy, grade 3 or 4 diarrhoea despite optimal loperamide support, failure to take study medication for 7 days or more within the first treatment cycle due to drug-related toxicity or any CTC grade 3 or 4 nonhaematological toxicity (excluding alopaecia). The MTD was defined as the dose below the dose at which two or three of three, or two or more of six patients experienced DLT during cycle 1.

[2] = molecular target: T1, FTase (Homo sapiens, UniProt P49356); experiment: FTase activity in PBMC lysates of patients (lamin B or K-Ras substrate), PK/PD Emax model; assay type: in vivo
T1 construct: endogenous in cells; host or cells: peripheral blood mononuclear cells (PBMCs) of treated patients, lysed
Description: Prior to and 2 h after intake on days 1, 2 (only predose), 8 and 22, whole-blood samples of 22.5 ml were collected in heparinised tubes for FTase activity determination in peripheral blood mononuclear cells (PBMCs). Within 30 min, the PBMC fraction was isolated using Accuspin tubes (Sigma). The cell pellet was resuspended in 100 μl lysis buffer (PBS containing 1% (v/v) Triton X-100, 0.5% (w/v) sodium deoxycholate, 0.1% (w/v) sodium dodecylsulphate and 1% (v/v) aprotinin) and stored at −70°C.
FTase activity was measured by adding 5 μl of PBMC lysate, 5 μl of lysis buffer and 10 μl of water to each well. The lysates were preincubated for 10 min prior to the addition of 20 μl of substrate solution (either lamin B or K-Ras). The reaction was initiated by the addition of 10 μl of radiolabelled farnesylpyrophosphate (fpp). The wells were incubated for 40 min at 37°C. The reaction was stopped by the addition of 100 μl of 1.5 M HCl in ethanol. The wells were stored at 4°C for 1 h and then processed using the Tomtec Harvester 96. The filter plates were dried at 37°C for 15 min, 0.35 μl MicroScint was added to each filter well and the radioactivity was counted. Each lysate was analysed in triplicate. Blanks consisted of the same reaction mixture without the substrate.
Linear mixed effects models were constructed to determine the effect of time on the enzyme activity levels. In these models, the daily dose, number of applications, time (days), measurement pre- or postdrug intake, gender and age were considered to be a fixed effect, and the patient variable was considered to be a random effect. Owing to the distribution of the response variables, square root variables were applied. Statistical analysis was performed with SAS. To determine the correlation of the dose level and the enzyme inhibition, a baseline was added to the described models.
Pharmacokinetic-pharmacodynamic correlations between the active acid metabolite and decrease in FTase activity were fitted with WinNonlin software. Only patients with a basal FTase activity that was higher than 10 pg fpp per mg protein per min were included in the model. This cutoff value was arbitrary and was chosen based on the available data (lamin B; mean: 28.0, SD: 14.2, median: 27.8, 25% percentile: 19.1 and K-Ras; mean: 29.3, SD: 17.8, median: 25.6, 25% percentile: 16.7). The decision to set a minimum baseline FTase activity implicates that the model can only be used for patients with a minimum FTase activity of 10 pg fpp per mg protein per min.

[3] = all dose levels, drug-related nonhaematological toxicity
[4] = cycle 1, 250 mg b.i.d. (part B, fed state), 3 patients
[5] = cycle 1, 750 mg b.i.d., 8 patients
[6] = cycle 1, 1250 mg b.i.d., 6 patients
[7] = cycle 1, 1500 mg b.i.d., 2 patients
[8] = cycle 1, 1750 mg b.i.d., 4 patients
[9] = cycle 1, all doses, 29 patients

Q: Which “chance to suffer from vomiting (grade 1–2) due to the medication” value ([1]; at maximal AZD3409 acid plasma concentrations up to 140 ng ml^−1, cycle 1, n=22) does the source give for `CSCC[C@H](NC(=O)c1cc(NC[C@@H]2C[C@H](S)CN2)ccc1CCc1ccc(F)cc1)C(=O)O` [AZD3409 acid] here?
A: below 15%

Q: What about the “plasma concentration at which 90% of the maximal biological effect is reached” value ([2]; Emax model for lamin B) of the same compound?
A: approximately 100 ng ml^−1

Q: What about the EC50 ([2]; Emax model, lamin B substrate, PBMC lysate, day 1, 2 h after intake, read-out: EC50 (plasma concentration at 50% of maximal FTase inhibition) (converted)) of the same compound?
A: 18.8 nM

Q: What about the Emax ([2]; human, Emax model, lamin B substrate, PBMC lysate, day 1, 2 h after intake, vs AZD3409 acid plasma concentration, read-out: maximal effect (Emax), maximal FTase inhibition) of the same compound?
A: 49 ± 11%

Q: What about the “share of the maximally achievable FTase inhibition at mean trough concentrations” value ([2]; twice daily dosing levels, Emax model lamin B) of the same compound?
A: at least 75%

Q: Which “dose-limiting gastrointestinal toxicity (grade 3 diarrhoea, grade 3 dehydration, grade 2/3 nausea, grade 2 vomiting)” value ([1]; 1250 mg b.i.d.) does the source give for `CSCC[C@H](NC(=O)c1cc(NC[C@@H]2C[C@H](SC(=O)c3cccnc3)CN2)ccc1CCc1ccc(F)cc1)C(=O)OC(C)C` [AZD3409] here?
A: three out of six patients

Q: What about the “dose-limiting toxicity: unable to continue due to grade 3 diarrhoea and uncontrolled nausea (grade 2), respectively” value ([1]; 1500 mg b.i.d.) of the same compound?
A: two patients

Q: What about the “dose-limiting toxicity: unable to take the drug due to CTC grade 2 vomiting in spite of antiemetics” value ([1]; 1750 mg b.i.d.) of the same compound?
A: two patients

Q: And the “diarrhoea, patients reporting” value [1, 3]?
A: 41%

Q: What about the “nausea, patients reporting” value [1, 3] of the same compound?
A: 55%

Q: And the “vomiting, patients reporting” value [1, 3]?
A: 55%

Q: What about the haematological toxicity ([1]; cycle 1, 29 evaluable patients) of the same compound?
A: No significant haematological toxicity

Q: And the “Nausea grade 1–2, number of patients” value [1, 4]?
A: 1

Q: What about the “Vomiting grade 1–2, number of patients” value [1, 4] of the same compound?
A: 2

Q: What about the “Anorexia grade 1–2, number of patients” value ([1]; cycle 1, 500 mg, 3 patients) of the same compound?
A: 1

Q: And the “Fatigue grade 1–2, number of patients” value ([1]; cycle 1, 500 mg, 3 patients)?
A: 1

Q: And the “Nausea grade 1–2, number of patients” value ([1]; cycle 1, 500 mg, 3 patients)?
A: 1

Q: What about the “Vomiting grade 1–2, number of patients” value ([1]; cycle 1, 500 mg, 3 patients) of the same compound?
A: 1

Q: What about the “Abdominal pain grade 1–2, number of patients” value [1, 5] of the same compound?
A: 1

Q: And the “Anorexia grade 1–2, number of patients” value [1, 5]?
A: 2

Q: What about the “Diarrhoea grade 1–2, number of patients” value [1, 5] of the same compound?
A: 3

Q: And the “Fatigue grade 1–2, number of patients” value [1, 5]?
A: 2

Q: And the “Nausea grade 1–2, number of patients” value [1, 5]?
A: 5

Q: And the “Vomiting grade 1–2, number of patients” value [1, 5]?
A: 4

Q: And the “Diarrhoea grade 1–2, number of patients” value ([1]; cycle 1, 1000 mg, 3 patients)?
A: 3

Q: And the “Nausea grade 1–2, number of patients” value ([1]; cycle 1, 1000 mg, 3 patients)?
A: 2

Q: What about the “Vomiting grade 1–2, number of patients” value ([1]; cycle 1, 1000 mg, 3 patients) of the same compound?
A: 2

Q: And the “Abdominal pain grade 1–2, number of patients” value [1, 6]?
A: 2

Q: What about the “Anorexia grade 1–2, number of patients” value [1, 6] of the same compound?
A: 1

Q: What about the “Diarrhoea grade 1–2, number of patients” value [1, 6] of the same compound?
A: 2

Q: And the “Diarrhoea grade 3–4, number of patients” value [1, 6]?
A: 1

Q: What about the “Fatigue grade 1–2, number of patients” value [1, 6] of the same compound?
A: 1

Q: And the “Nausea grade 1–2, number of patients” value [1, 6]?
A: 3

Q: What about the “Nausea grade 3–4, number of patients” value [1, 6] of the same compound?
A: 1

Q: And the “Vomiting grade 1–2, number of patients” value [1, 6]?
A: 3

Q: And the “Diarrhoea grade 3–4, number of patients” value [1, 7]?
A: 1

Q: And the “Nausea grade 1–2, number of patients” value [1, 7]?
A: 1

Q: And the “Vomiting grade 1–2, number of patients” value [1, 7]?
A: 1

Q: And the “Anorexia grade 1–2, number of patients” value [1, 8]?
A: 2

Q: And the “Diarrhoea grade 1–2, number of patients” value [1, 8]?
A: 4

Q: And the “Fatigue grade 1–2, number of patients” value [1, 8]?
A: 1

Q: What about the “Nausea grade 1–2, number of patients” value [1, 8] of the same compound?
A: 3

Q: What about the “Vomiting grade 1–2, number of patients” value [1, 8] of the same compound?
A: 3

Q: What about the “Abdominal pain grade 1–2, total” value [1, 9] of the same compound?
A: 3 (10) n (%)

Q: What about the “Anorexia grade 1–2, total” value [1, 9] of the same compound?
A: 6 (21) n (%)

Q: What about the “Diarrhoea grade 1–2, total” value [1, 9] of the same compound?
A: 12 (41) n (%)

Q: What about the “Diarrhoea grade 3–4, total” value [1, 9] of the same compound?
A: 2 (7) n (%)

Q: What about the “Fatigue grade 1–2, total” value [1, 9] of the same compound?
A: 5 (17) n (%)

Q: What about the “Nausea grade 1–2, total” value [1, 9] of the same compound?
A: 16 (55) n (%)

Q: And the “Nausea grade 3–4, total” value [1, 9]?
A: 1 (3) n (%)

Q: And the “Vomiting grade 1–2, total” value [1, 9]?
A: 16 (55) n (%)

Q: And the “MTD of part A” value ([1]; patients, fasted state, continuous oral dosing)?
A: 750 mg b.i.d.

Q: What about the “degree of FTase inhibition in PBMCs after intake vs prior to intake” value ([2]; each day, lamin B and K-Ras substrates, mixed effects model) of the same compound?
A: significantly higher than prior to intake
